Measured values from paper PMC11233931, “Remodeling tumor‐associated macrophage for anti‐cancer effects by rational design of irreversible inhibition of mitogen‐activated protein kinase‐activated protein kinase 2” (MedComm, 2024).

How the values were obtained:
Test in all cases: Eurofins kinase selectivity profile against 380 other human recombinant kinases (Table S2)
Type in all cases: biochemical
[1] = target: T1, 380 human recombinant protein kinases (Homo sapiens, UniProt Q04771); settings: ALK2(h), read-out: Inhibition rate
T1 construct: purchased Eurofins (Celle Lévescault)
T1 sequence (Q04771 21-509): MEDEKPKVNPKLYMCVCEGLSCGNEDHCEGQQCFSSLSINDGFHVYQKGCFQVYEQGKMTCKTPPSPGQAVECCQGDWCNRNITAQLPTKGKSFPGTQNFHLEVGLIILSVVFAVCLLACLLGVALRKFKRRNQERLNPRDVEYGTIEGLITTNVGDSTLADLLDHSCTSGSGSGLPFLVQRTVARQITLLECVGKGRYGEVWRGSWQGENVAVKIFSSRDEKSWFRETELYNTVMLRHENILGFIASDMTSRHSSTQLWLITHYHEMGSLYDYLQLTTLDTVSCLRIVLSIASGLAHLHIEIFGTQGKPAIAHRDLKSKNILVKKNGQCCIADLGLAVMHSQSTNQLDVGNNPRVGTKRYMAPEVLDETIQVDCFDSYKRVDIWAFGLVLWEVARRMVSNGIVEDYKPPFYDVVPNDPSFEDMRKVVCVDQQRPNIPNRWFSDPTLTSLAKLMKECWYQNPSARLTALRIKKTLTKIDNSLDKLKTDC
Method in brief: (§1)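 To gauge specificity for MK2, the compound is profiled externally at various concentrations on recombinant human kinases, 380 in total.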

[2] = target: T2, 380 human recombinant protein kinases (Homo sapiens, UniProt P42338); settings: PI3 Kinase (p110β/p85α)(h), read-out: Inhibition rate (%)
T2 construct: purchased Eurofins (Celle Lévescault)
T2 sequence (P42338 whole entry): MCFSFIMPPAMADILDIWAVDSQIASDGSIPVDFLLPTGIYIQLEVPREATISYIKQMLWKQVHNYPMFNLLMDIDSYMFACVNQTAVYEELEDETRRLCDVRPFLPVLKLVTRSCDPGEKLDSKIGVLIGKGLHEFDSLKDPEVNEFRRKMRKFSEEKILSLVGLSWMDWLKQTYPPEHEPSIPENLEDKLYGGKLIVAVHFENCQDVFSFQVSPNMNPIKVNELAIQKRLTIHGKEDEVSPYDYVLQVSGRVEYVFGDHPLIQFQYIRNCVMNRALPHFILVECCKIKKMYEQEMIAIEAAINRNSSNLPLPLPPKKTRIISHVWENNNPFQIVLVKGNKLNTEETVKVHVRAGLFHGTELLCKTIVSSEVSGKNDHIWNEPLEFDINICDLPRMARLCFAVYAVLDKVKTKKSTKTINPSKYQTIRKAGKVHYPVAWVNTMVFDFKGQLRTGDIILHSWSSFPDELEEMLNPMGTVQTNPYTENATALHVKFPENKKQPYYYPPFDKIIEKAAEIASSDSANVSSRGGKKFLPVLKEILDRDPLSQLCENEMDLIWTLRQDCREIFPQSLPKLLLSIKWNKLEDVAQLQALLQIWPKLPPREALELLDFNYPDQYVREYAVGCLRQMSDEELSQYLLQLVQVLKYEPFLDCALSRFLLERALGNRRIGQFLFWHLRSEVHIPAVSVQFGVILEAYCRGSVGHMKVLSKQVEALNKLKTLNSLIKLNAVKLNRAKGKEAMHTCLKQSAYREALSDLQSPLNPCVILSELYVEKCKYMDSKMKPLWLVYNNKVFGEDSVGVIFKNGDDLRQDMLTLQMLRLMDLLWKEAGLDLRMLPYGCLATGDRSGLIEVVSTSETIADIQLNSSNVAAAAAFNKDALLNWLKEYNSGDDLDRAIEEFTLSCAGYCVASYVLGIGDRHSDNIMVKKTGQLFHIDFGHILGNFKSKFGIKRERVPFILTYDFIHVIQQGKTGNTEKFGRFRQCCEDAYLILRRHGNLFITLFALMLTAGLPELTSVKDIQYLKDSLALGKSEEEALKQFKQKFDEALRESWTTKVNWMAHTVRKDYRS
Method in brief: as §1

[3] = target: T3, 380 human recombinant protein kinases (Homo sapiens, UniProt P51956); settings: NEK3(h), read-out: Inhibition rate
T3 construct: purchased Eurofins (Celle Lévescault)
T3 sequence (P51956 1-506): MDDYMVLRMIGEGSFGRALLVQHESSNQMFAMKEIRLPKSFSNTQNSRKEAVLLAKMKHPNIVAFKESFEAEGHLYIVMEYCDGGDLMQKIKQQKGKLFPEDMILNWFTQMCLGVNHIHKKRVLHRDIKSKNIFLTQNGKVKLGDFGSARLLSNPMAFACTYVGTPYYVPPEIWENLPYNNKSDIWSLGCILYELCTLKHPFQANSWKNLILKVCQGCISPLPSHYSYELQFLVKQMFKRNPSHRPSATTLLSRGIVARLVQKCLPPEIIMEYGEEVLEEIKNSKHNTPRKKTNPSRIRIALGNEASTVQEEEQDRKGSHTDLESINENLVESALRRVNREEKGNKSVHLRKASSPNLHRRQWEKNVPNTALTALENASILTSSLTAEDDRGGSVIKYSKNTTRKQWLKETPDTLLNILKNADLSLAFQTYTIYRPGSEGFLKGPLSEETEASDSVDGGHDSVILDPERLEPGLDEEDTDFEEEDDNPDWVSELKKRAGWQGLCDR
Method in brief: as §1

[4] = target: T4, 380 human recombinant protein kinases (Homo sapiens, UniProt Q8TDX7); settings: NEK7(h), read-out: Inhibition rate
T4 construct: purchased Eurofins (Celle Lévescault)
T4 sequence (Q8TDX7 whole entry): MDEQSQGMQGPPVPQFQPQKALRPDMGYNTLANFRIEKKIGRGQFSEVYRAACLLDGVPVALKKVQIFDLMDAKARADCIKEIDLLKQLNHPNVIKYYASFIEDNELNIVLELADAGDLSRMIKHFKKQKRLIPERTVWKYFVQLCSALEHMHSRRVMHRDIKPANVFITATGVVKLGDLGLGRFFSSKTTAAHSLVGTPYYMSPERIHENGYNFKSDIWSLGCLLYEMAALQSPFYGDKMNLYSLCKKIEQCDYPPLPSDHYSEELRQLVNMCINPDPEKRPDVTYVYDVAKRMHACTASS
Method in brief: as §1

[5] = target: T5, 380 human recombinant protein kinases (Homo sapiens, UniProt O14920); settings: IKKβ(h), read-out: Inhibition rate
T5 construct: purchased Eurofins (Celle Lévescault)
T5 sequence (O14920 1-756): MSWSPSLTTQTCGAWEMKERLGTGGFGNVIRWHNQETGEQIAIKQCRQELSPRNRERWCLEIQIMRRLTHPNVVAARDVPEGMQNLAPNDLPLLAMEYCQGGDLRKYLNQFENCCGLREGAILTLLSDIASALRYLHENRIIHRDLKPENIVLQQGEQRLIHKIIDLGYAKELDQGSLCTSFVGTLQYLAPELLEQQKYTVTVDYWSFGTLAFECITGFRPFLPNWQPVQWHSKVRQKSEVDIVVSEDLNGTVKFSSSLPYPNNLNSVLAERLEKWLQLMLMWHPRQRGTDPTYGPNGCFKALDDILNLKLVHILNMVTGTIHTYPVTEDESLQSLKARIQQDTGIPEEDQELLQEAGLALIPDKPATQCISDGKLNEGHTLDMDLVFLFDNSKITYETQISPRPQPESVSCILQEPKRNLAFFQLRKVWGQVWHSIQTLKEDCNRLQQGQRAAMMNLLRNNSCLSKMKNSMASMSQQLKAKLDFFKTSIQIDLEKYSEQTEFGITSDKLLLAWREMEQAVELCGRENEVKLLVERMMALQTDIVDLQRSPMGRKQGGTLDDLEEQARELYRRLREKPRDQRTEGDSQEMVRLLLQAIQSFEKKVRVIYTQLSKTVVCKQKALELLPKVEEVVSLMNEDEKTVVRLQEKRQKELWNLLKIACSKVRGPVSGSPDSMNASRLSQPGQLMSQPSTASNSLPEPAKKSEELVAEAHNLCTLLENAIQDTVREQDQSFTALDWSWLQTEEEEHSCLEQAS
Method in brief: as §1

[6] = target: T6, 380 human recombinant protein kinases (Homo sapiens, UniProt Q9Y3S1); settings: WNK2(h), read-out: Inhibition rate (%)
T6 construct: purchased Eurofins (Celle Lévescault)
T6 sequence (Q9Y3S1 whole entry): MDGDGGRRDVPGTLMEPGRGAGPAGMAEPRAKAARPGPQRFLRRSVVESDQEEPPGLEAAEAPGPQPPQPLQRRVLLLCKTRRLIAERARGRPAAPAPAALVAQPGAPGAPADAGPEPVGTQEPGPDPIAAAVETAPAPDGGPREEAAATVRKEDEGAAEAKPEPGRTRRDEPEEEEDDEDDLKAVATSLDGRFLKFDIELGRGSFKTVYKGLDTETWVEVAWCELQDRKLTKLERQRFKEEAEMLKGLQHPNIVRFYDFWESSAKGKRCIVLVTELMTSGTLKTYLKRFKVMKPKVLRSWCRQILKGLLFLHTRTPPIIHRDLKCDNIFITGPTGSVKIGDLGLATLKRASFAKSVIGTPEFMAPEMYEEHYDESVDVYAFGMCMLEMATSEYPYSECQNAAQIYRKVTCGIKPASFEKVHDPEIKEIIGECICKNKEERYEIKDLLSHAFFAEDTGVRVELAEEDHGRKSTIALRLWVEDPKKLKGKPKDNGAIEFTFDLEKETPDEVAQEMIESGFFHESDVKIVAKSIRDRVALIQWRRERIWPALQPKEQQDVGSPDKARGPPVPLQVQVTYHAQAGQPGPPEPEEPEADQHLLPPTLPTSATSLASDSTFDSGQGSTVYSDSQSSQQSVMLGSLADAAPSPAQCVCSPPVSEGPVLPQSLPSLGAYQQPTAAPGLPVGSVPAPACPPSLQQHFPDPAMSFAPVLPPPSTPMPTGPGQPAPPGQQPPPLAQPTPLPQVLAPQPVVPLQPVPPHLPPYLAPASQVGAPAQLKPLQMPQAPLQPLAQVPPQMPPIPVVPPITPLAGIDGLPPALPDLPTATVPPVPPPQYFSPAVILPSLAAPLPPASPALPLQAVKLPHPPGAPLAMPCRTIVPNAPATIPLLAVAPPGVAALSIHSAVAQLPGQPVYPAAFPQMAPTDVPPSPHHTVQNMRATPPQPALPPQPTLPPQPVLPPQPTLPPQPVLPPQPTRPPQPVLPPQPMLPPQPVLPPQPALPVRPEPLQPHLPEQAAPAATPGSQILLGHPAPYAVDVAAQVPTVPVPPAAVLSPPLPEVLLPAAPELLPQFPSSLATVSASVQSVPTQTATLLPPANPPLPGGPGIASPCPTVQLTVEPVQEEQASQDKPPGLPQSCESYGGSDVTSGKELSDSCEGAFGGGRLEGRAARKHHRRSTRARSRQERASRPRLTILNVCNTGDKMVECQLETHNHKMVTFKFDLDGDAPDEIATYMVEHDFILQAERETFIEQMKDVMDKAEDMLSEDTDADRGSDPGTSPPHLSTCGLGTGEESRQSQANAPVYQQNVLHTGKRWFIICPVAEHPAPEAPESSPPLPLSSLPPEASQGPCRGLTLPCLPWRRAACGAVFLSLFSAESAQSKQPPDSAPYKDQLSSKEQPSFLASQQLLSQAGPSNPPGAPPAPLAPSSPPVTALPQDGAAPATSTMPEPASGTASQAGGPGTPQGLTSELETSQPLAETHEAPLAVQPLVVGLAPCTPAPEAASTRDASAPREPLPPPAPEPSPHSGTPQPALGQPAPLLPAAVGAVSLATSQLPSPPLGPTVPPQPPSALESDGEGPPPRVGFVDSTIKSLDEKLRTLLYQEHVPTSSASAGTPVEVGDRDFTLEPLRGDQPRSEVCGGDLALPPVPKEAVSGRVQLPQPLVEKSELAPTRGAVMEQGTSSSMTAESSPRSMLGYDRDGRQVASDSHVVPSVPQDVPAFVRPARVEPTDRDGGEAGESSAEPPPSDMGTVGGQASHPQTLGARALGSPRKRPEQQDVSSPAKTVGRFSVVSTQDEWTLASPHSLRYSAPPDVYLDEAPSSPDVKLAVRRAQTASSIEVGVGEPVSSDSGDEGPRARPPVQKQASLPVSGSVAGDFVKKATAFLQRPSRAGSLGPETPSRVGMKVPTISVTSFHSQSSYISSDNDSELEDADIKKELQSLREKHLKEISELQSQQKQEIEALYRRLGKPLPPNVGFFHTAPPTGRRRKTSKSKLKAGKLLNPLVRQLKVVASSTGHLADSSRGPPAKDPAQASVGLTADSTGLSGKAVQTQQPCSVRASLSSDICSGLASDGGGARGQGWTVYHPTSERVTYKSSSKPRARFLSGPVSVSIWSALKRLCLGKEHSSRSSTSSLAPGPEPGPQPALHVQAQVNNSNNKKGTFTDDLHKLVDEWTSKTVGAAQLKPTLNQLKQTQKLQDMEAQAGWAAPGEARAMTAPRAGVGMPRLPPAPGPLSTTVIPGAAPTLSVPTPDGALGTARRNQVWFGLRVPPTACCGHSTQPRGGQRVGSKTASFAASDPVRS
Method in brief: as §1

[7] = target: T7, 380 human recombinant protein kinases (Homo sapiens, UniProt P05771); settings: PKCβI(h), read-out: Inhibition rate
T7 construct: purchased Eurofins (Celle Lévescault)
T7 sequence (P05771 whole entry): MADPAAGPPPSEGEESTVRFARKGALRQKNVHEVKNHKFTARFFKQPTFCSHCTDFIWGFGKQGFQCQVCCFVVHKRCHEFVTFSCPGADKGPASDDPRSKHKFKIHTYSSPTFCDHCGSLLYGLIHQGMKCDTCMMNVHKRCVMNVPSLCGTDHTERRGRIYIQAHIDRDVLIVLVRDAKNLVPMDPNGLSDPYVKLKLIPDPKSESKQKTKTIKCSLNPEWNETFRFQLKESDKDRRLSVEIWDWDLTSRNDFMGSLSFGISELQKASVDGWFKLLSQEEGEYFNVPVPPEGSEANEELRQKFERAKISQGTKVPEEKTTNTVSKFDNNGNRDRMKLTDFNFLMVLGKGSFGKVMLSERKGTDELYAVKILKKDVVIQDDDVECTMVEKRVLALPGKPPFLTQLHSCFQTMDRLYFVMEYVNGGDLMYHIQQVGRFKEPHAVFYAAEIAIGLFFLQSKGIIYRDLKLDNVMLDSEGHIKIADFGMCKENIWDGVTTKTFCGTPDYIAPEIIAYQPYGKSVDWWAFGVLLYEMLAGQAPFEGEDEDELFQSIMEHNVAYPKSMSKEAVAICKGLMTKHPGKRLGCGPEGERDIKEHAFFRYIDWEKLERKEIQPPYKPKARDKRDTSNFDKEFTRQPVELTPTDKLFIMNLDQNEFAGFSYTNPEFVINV
Method in brief: as §1

In the case of `C=CC(=O)Nc1cc(-c2cc(-c3cc4c([nH]3)CCNC4=O)ccn2)ccc1OC(F)(F)F` [compound 11], the inhibition at 0.01 µM ([1]; 10 nM) is reported as -4%, the inhibition at 0.1 µM ([1]; 100 nM) is reported as -6% and the inhibition at 1 µM ([1]; 1000 nM) is reported as 0%. For the same compound, the inhibition at 0.01 µM ([2]; 10 nM) was -1%, the inhibition at 0.1 µM ([2]; 100 nM) was -1% and the inhibition at 1 µM ([2]; 1000 nM) was -1%. For the same compound, the inhibition at 0.01 µM ([3]; 10 nM) was -6%, the inhibition at 0.1 µM ([3]; 100 nM) was 0% and the inhibition at 1 µM ([3]; 1000 nM) was -1%. For the same compound, the inhibition at 0.01 µM ([4]; 10 nM) was -5%, the inhibition at 0.1 µM ([4]; 100 nM) was -2% and the inhibition at 1 µM ([4]; 1000 nM) was 3%. It also gave an inhibition at 0.01 µM ([5]; 10 nM) of -15%, an inhibition at 0.1 µM ([5]; 100 nM) of -12% and an inhibition at 1 µM ([5]; 1000 nM) of -12%. The inhibition at 0.01 µM ([6]; 10 nM) was 11%, the inhibition at 0.1 µM ([6]; 100 nM) was 19% and the inhibition at 1 µM ([6]; 1000 nM) was 17%. For the same compound, the inhibition at 0.01 µM ([7]; 10 nM) was 3%, the inhibition at 0.1 µM ([7]; 100 nM) was 1% and the inhibition at 1 µM ([7]; 1000 nM) was -13%.
